The target in this assay is T1, AauA (Escherichia coli, UniProt Q8X6A6).
T1 construct: gene ECs_0374
Put plainly: isothermal titration calorimetry. The assay is classed as binding. For orientation: Isothermal titration calorimetry measures the heat released or taken up as one component is titrated into another.

Read-outs that look alike come from different tables or passages of the source.

T1 sequence (Q8X6A6 29-328 limits assumed): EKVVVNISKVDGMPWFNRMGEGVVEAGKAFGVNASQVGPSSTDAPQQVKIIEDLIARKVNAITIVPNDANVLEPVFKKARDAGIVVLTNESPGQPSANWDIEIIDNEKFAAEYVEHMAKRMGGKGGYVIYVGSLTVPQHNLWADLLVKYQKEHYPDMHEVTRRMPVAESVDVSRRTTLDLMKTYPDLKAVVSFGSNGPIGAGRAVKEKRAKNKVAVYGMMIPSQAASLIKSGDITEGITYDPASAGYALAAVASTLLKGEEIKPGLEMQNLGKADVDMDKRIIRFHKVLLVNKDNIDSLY

As for `OC1OC[C@H](O)[C@H](O)[C@H]1O` (some centres unmarked) [ʟ-arabinose], where the note is “50 mM HEPES, 150 mM NaCl, pH 7.0, 25 °C, 70 µM AauA, single-site model”, the Kd (in general, the free concentration of one partner at which half of the binding sites on the other are occupied at equilibrium, for simple one-to-one binding) worked out at 598 ± 132 µM.

`O=C(CO)[C@H](O)[C@H](O)CO` [D-ribulose]: the dissociation constant (Kd) amounted to 1.98 ± 0.3 µM.

Source of the values: article PMC12307932, “Convergent evolution of distinct D-ribulose utilisation pathways in attaching and effacing pathogens” (Nature Communications, 2025).
